From ChEMBL document CHEMBL1143110, “Targeting ACE and ECE with dual acting inhibitors” (Bioorg Med Chem Lett, 2008)

Experiments:
Neprilysin = Neprilysin (Homo sapiens, UniProt P08473); assay: Inhibition of NEP
[1] = Inhibition of ECE
[2] = target: Angiotensin-converting enzyme (Homo sapiens, UniProt P12821); assay: Inhibition of ACE

IC50 (Neprilysin)	IC50 [1]	IC50 [2]	SMILES
6 nM	–	–	CC(C)CN(CCP(=O)(O)O)C(=O)N[C@@H](Cc1ccc2ccccc2c1)C(=O)O
10 nM	3490 nM	35 nM	CC(C)CN(C[C@H](O)C(=O)O)C(=O)N[C@@H](Cc1ccc(-c2ccccc2)cc1)C(=O)O
650 nM	600 nM	1980 nM	O=C(O)[C@H](Cc1ccc2ccccc2c1)NC(=O)N(CCN1C(=O)c2cccc3cccc(c23)C1=O)C[C@H](O)C(=O)O
2 nM	–	29 nM	CC(C)CN(CP(=O)(O)O)C(=O)N[C@@H](Cc1ccc2ccccc2c1)C(=O)O
9 nM	–	110 nM	CC(C)CN(C[C@H](O)C(=O)O)C(=O)N[C@@H](Cc1cccc2ccccc12)C(=O)O
19000 nM	–	150 nM	O=C(O)[C@H](Cc1ccc2ccccc2c1)NC(=O)N(Cc1ccc2c(c1)Cc1ccccc1-2)C[C@H](O)C(=O)O
6 nM	–	60 nM	CC(C)CN(C[C@H](O)C(=O)O)C(=O)N[C@@H](Cc1ccc(O)cc1)C(=O)O
19 nM	–	23 nM	CC(C)CN(C[C@H](O)C(=O)O)C(=O)N[C@@H](Cc1ccc(O)c(O)c1)C(=O)O
36 nM	–	–	CCC(CC)CN(C[C@H](O)C(=O)O)C(=O)N[C@@H](Cc1ccc2ccccc2c1)C(=O)O
8 nM	16500 nM	103 nM	CC(C)CN(C[C@H](O)C(=O)O)C(=O)N[C@@H](Cc1c[nH]c2ccccc12)C(=O)O
–	–	39 nM	O=C1c2ccccc2-c2ccc(CN(C[C@H](O)C(=O)O)C(=O)N[C@@H](Cc3ccc4ccccc4c3)C(=O)O)cc21
5 nM	–	191 nM	CC(C)(C)CN(C[C@H](O)C(=O)O)C(=O)N[C@@H](Cc1ccc2ccccc2c1)C(=O)O
–	–	40 nM	O=C1c2ccccc2C(=O)c2cc(CN(C[C@H](O)C(=O)O)C(=O)N[C@@H](Cc3ccc4ccccc4c3)C(=O)O)ccc21

SMILES	IC50 (Neprilysin)	IC50 [1]	IC50 [2]
CC(C)CN(C[C@H](O)C(=O)O)C(=O)N[C@@H](Cc1ccc2ccccc2c1)C(=O)O	4 nM	2500 nM	52 nM
